ChEMBL document CHEMBL1201862, “PubChem BioAssay data set” (2004)
Values belong to the compound of their own block, whether it stands above or below them. Calls of active or inactive are those of the source.

Experiments:
[1] = target: Melanin-concentrating hormone receptor 1 (Homo sapiens, UniProt Q99705); assay: Late-stage fluorescence-based counterscreen for antagonists of the G-protein coupled receptor 7 (GPR7): cell-based dose response assay to identify antagonists of the melanin-concentrating hormone receptor 1 (MCHR1) Set 5.; type: functional
Sequence of Melanin-concentrating hormone receptor 1 (Q99705 whole entry): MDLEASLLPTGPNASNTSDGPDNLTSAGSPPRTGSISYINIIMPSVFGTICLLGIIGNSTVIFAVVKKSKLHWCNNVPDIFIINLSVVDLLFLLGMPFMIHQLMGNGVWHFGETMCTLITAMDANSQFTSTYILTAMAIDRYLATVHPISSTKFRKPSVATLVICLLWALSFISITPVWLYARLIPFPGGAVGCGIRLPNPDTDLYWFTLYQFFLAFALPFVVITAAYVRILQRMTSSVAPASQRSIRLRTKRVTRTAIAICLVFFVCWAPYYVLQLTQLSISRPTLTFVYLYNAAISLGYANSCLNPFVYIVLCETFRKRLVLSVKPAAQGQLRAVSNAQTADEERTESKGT

[2] = target: T1, Sentrin-specific protease 8 (Homo sapiens, UniProt Q96LD8); assay: SENP8 protease inhibitors, SAR follow-up, biochemical, luminescence (AID 504501); type: functional
T1 sequence (Q96LD8 whole entry): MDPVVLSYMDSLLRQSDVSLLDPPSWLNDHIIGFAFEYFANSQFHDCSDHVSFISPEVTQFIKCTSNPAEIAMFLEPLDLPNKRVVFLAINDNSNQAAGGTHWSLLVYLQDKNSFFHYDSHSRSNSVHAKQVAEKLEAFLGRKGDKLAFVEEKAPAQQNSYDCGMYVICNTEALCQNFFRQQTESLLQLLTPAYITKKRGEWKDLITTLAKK

[3] = target: T2, Caspase-3 (Homo sapiens, UniProt P42574); assay: SAR Analysis of small molecule inhibitors of Sentrin-specific proteases (SENPs) using a Caspase-3 Selectivity assay. [Related pubchem assays (depositor defined):AID2540, AID2599, AID434973, AID489001]; type: functional
T2 sequence (P42574 whole entry): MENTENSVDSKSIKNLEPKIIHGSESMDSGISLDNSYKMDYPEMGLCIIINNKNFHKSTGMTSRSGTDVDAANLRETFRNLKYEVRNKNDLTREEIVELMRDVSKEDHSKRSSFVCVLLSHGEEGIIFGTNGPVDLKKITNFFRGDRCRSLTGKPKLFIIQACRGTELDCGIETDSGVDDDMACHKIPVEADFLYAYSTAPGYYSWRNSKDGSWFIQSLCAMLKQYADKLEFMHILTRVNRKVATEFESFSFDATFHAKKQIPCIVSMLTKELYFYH

[4] = target: T3, Sentrin-specific protease 6 (Homo sapiens, UniProt Q9GZR1); assay: SAR Analysis of small molecule inhibitors of Sentrin-specific protease 6 (SENP6) using a Luminescent assay. [Related pubchem assays (depositor defined):AID2582, AID2599]; type: functional
T3 sequence (Q9GZR1 whole entry): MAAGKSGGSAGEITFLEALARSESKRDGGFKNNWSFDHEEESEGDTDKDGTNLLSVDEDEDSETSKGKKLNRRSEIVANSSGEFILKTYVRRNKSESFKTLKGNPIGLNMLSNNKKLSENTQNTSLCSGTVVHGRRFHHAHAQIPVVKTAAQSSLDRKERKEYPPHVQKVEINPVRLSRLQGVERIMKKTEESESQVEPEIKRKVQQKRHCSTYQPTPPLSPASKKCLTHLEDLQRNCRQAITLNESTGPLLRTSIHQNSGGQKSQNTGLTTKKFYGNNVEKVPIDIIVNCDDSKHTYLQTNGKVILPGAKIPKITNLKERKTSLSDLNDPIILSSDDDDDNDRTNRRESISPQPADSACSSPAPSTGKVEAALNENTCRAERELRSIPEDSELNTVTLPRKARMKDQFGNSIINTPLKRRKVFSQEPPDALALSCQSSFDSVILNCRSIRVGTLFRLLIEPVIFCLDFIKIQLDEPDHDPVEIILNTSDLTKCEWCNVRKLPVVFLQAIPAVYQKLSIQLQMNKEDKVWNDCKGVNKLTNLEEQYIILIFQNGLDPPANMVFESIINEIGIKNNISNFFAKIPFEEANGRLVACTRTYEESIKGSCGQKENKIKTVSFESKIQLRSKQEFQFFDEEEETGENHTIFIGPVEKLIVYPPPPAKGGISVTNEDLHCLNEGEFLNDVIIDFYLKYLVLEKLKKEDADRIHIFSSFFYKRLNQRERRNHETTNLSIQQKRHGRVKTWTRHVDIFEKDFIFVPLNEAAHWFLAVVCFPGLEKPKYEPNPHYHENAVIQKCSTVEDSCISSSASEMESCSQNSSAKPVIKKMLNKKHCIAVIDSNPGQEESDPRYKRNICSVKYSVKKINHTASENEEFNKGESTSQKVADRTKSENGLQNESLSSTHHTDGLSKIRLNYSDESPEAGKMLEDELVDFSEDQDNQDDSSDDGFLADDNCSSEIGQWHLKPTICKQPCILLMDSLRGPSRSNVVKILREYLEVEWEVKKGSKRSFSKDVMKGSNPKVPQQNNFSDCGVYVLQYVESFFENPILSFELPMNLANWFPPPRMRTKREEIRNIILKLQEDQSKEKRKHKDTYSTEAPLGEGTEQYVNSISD

[5] = target: T4, Sentrin-specific protease 7 (Homo sapiens, UniProt Q9BQF6); assay: SENP7 protease inhibitors, SAR follow-up, biochemical, luminescence (AID 504497); type: functional
T4 sequence (Q9BQF6 whole entry): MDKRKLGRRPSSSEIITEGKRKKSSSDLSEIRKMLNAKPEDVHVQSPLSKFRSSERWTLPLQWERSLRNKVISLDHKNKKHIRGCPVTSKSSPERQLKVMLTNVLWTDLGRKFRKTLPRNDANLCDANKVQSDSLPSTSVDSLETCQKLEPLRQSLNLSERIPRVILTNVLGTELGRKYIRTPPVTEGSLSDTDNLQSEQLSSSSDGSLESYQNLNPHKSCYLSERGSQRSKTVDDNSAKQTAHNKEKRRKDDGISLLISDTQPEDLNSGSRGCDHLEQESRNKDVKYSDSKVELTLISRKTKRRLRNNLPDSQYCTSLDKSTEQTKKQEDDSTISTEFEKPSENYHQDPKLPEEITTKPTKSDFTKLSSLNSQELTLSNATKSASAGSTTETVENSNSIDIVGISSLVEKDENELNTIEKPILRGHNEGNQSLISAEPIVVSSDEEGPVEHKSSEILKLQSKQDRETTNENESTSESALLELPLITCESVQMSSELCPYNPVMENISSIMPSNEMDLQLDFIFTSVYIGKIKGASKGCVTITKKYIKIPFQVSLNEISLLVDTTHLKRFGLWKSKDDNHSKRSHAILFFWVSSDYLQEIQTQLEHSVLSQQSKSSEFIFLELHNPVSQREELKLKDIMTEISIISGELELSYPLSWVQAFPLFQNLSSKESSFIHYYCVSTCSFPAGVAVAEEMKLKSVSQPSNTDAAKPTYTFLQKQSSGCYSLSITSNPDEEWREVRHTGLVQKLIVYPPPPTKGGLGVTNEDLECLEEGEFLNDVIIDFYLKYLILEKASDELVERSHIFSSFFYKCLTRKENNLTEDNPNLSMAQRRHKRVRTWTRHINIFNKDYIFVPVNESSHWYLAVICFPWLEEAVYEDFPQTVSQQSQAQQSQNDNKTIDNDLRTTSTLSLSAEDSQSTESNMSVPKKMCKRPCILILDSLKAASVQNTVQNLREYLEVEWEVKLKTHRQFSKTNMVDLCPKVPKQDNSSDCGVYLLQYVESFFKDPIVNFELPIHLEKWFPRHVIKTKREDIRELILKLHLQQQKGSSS

[6] = target: Serine/threonine-protein phosphatase PP1-alpha catalytic subunit (Homo sapiens, UniProt P62136); assay: PP1 phosphatase inhibitors, dose response, biochemical, fluorescence (AID 2394)
Sequence of Serine/threonine-protein phosphatase PP1-alpha catalytic subunit (P62136 whole entry): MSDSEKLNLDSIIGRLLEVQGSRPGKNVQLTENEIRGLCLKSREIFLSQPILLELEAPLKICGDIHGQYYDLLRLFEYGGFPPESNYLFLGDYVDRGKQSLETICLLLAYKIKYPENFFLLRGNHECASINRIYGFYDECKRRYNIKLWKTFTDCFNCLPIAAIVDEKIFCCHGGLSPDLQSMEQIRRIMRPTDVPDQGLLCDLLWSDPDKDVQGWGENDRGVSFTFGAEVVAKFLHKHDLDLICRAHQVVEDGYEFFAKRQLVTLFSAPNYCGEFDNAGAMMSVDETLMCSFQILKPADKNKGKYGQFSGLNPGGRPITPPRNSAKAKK

[7] = target: Serine/threonine-protein phosphatase (Homo sapiens, UniProt Q9BPW0); assay: PP5 phosphatase inhibitors, dose response, biochemical, fluorescence (AID 2395)
Sequence of Serine/threonine-protein phosphatase (Q9BPW0 whole entry): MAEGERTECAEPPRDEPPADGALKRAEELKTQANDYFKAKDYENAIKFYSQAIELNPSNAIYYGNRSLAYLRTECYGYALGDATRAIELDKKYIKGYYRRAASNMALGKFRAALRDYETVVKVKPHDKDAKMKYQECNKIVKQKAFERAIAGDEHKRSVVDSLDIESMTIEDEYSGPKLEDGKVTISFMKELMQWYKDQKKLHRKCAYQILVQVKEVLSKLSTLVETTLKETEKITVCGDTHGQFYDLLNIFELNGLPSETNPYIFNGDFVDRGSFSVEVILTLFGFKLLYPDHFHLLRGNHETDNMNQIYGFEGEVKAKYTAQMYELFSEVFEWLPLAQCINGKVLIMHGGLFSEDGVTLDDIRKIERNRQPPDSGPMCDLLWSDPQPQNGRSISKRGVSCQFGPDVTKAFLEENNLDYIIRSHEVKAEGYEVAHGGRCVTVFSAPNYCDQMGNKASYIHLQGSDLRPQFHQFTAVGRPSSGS

[8] = target: T5, Apoptotic protease-activating factor 1 (Homo sapiens, UniProt O14727); type: functional
T5 sequence (O14727 whole entry): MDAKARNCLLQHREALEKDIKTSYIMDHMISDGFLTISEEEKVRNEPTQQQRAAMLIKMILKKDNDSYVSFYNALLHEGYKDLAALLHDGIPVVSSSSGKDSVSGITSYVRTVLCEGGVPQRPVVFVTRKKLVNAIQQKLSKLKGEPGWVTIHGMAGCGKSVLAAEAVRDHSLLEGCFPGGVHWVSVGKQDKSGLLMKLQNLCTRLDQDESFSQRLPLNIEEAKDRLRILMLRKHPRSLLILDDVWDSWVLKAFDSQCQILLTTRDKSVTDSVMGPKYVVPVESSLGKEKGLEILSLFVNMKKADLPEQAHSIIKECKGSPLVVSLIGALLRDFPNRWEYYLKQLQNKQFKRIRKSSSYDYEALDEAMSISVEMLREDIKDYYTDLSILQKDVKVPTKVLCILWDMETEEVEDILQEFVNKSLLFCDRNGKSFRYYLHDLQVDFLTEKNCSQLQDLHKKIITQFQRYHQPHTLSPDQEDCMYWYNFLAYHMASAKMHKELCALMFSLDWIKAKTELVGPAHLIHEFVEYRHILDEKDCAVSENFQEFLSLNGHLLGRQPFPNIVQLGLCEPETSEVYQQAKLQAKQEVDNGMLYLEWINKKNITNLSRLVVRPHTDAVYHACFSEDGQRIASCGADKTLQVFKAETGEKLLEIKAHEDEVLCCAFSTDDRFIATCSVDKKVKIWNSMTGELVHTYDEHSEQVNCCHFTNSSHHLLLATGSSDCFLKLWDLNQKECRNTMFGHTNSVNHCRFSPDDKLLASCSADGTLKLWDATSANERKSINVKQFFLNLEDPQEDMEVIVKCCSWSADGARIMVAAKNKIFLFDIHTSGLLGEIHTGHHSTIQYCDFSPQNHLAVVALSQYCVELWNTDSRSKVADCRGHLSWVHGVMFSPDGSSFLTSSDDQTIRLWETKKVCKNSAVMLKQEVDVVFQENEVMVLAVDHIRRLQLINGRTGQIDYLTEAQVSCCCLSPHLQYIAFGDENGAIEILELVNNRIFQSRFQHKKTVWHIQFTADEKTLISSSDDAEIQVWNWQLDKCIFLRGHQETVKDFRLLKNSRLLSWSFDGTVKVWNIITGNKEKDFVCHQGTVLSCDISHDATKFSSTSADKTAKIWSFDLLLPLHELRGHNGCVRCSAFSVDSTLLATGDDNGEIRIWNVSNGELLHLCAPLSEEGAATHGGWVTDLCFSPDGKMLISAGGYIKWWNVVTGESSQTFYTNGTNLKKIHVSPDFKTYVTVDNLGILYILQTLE

[9] = target: T6, Caspase-6 (Homo sapiens, UniProt P55212); assay: human caspase-6 inhibitors, dose response, biochemical, VEID-R110 fluorescence, cherry-pick (AID 720632)
T6 sequence (P55212 whole entry): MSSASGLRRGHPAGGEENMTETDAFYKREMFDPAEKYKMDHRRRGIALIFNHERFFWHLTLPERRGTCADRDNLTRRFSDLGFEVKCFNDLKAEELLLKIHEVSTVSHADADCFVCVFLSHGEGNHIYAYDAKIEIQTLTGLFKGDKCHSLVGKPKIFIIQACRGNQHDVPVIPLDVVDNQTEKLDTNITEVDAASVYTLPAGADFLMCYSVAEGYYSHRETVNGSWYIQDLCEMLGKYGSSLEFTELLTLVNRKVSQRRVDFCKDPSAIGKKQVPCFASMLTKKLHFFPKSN

[10] = target: T7, Insulin-degrading enzyme (Homo sapiens, UniProt P14735); assay: activators of recombinant IDE enzyme, dose response, counter-screen for IDE activator project, biochemical, fluorescence polarization (AID 588681)
T7 sequence (P14735 whole entry): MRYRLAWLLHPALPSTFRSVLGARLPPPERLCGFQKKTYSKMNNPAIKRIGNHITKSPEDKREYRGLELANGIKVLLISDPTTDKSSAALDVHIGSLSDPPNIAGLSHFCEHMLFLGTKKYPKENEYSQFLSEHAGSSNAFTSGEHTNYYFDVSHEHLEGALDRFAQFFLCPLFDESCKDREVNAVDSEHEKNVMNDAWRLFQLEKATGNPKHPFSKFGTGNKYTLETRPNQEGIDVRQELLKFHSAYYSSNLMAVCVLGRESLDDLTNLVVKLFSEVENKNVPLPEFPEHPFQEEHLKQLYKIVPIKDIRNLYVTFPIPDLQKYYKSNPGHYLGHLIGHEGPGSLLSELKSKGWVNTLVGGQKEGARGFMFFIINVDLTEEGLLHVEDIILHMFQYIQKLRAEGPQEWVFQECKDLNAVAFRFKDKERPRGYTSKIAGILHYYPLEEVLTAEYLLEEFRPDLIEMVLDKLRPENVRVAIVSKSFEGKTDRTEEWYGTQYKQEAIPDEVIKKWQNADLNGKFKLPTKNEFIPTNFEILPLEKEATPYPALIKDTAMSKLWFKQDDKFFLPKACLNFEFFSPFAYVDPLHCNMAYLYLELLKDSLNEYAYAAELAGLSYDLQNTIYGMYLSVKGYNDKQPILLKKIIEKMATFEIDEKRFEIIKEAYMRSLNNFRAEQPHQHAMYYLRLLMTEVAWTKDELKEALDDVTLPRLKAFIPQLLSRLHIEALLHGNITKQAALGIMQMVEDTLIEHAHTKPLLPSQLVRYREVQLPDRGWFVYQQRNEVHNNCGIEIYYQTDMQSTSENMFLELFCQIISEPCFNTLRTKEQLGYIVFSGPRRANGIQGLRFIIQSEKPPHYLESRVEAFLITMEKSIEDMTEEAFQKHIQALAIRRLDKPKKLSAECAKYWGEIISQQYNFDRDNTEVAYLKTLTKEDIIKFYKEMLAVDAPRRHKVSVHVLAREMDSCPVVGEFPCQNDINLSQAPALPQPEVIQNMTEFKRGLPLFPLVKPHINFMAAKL

[11] = target: T7, Insulin-degrading enzyme; assay: activators of endogenous IDE in HEK cells, dose response, cell-based, fluorescence polarization (AID 588439); type: functional
[12] = system: HEK293; assay: HEK cell cytotoxicity by LDH release, dose response, cytotoxicity control for IDE activator project, fluorescence, HEK cells (AID 588440); type: functional, cell-based; settings: Homo sapiens;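 note: cytotoxicity by LDH release measuring loss of membrane integrity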
[13] = system: HEK293; assay: optical interference in Abeta FP readout, dose response, artefact control for IDE activator project, biochemical, fluorescence polarization (AID 588442); type: functional, cell-based; settings: Homo sapiens

- IC50 [1]: 1.95 µM (active)
Structure (SMILES): COc1ccc(Oc2c(Cl)cnn(Cc3ccccc3C(C)C)c2=O)cc1

- IC50 [3]: > 99 µM (inactive)
- IC50 [4]: > 99 µM (inactive)
- IC50 [5]: > 99 µM (inactive)
Structure (SMILES): Fc1ccc(N/N=C/c2cn(Cc3ccccc3)c3ccccc23)cc1
- IC50 [2]: > 99 µM (inactive)

- IC50 [6]: 57.6 µM (not active)
- IC50 [7]: 11.8 µM (not active)
- IC50 [8]: 19.4 µM (active)
- AC50 [9]: 8.77 µM (active)
Structure (SMILES): COC(=O)CCC(=O)OC1(C)C(=O)C=C2C=C(C3CC3)N(CCCCO)C=C2C1=O (stereo not drawn)

Structure (SMILES): O=C1c2ccccc2C(Nc2ccc3[nH]c(-c4cccnc4)nc3c2)N1Cc1ccco1 (stereo not drawn)
- EC50 [10]: > 54.6 µM (inactive)
- EC50 [11]: > 54.6 µM (inactive)
- IC50 [12]: > 89.1 µM (inactive)
- EC50 [13]: > 55.9 µM (inactive)
